Results published in article PMC12645191, “Dicarboxylate and dicarboxylic acid appended supramolecular self-associating amphiphiles as antimicrobial agents against high priority bacterial pathogens” (Organic & Biomolecular Chemistry, 2025).
Values joined by “and” are separate entries in the source; they are usually repeats but may differ in a detail not shown here. Equal values may be shown once. Read-outs that look alike come from different tables or passages of the source.

How the values were obtained:
[1] = quantitative (Q) 1H NMR spectroscopy, proportion of SSA becoming NMR silent (higher-order aggregates); format: physicochemical
Experimental: To confirm the presence of higher order self-associative structures quantitative (Q) ^1H NMR spectroscopy studies were undertaken at 5.6 mM in D2O 5% EtOH. Here the ^1H NMR resonances attributed to the EtOH are used as an internal standard.
Table S1 – Overview of results of the quantitative (Q) 1H NMR studies for 1, 3, 5, 7 and 9
5.0 % EtOH . Values given in % represent the observed proportion of the SSA that has become
Table S2 – Overview of results of the quantitative (Q) 1H NMR studies for 2, 4, 6, 8 and 10
5.0 % EtOH. Values given in % represent the observed proportion of anion and cation that has

[2] = test system: K. pneumoniae M6; experiment: inhibition of bacterial growth, OD600 after 20 h; format: cell-based, Klebsiella pneumoniae; details: SSA 5.0 mM, 2.5% ethanol, negative = enhanced growth; for inhibition at 5000 µM: Klebsiella pneumoniae, M6, 20 h, read-out: Percentage inhibition of bacterial growth, M6 (K. pneumoniae)
Experimental: (§1) With the self-associative properties of 1–10 established, the antimicrobial activity of these SSAs were determined against a panel of clinically relevant, high-priority pathogens including: P. aeruginosa PAO1; Klebsiella pneumonia (K. pneumoniae) M6; E. coli NCTC 12923; Acinetobacter baumannii (A. baumannii) ATCC 17978; S. aureus ATCC 9144; Enterococcus faecalis (E. faecalis) NCTC 775; and Enterococcus faecium (E. faecium) NCTC 12204. […] However, it should be noted that the SSA stock solution was prepared in a H2O 5% EtOH solution, to ensure that the SSA aggregates formed were in line with those characterised within the scope of the SSA self-association studies.
(§2) Section 3: Biological methods
(§3) These methods were taken directly from UK Health and Security Office (UKHSA) standard […]
(§4) Preparation of Luria Broth media (LB): Yeast extract (5.0 g), tryptone (10.0 g) and sodium chloride (10.0 g) were dissolved in dH₂O (1.0 L) then divided into bottles and autoclaved.
(§5) Preparation of Luria Broth (LB) agar plates: Agar (6.0 g) was added to LB (400 mL) and autoclaved. Once cool, the LB agar was poured into sterile petri dishes under sterile conditions and allowed to set. LB plates were stored at 4 °C until use.
(§6) Preparation of bacterial plates: Sterile LB agar plates were streaked using streaked using the desired bacteria i) Pseudomonas aeruginosa (P.aeruginosa) PAO1, ii) Klebsiella pneumoniae (K. pneumoniae) M6 iii) E. coli NCTC 12923 and iv) Acinetobacter baumannii (A. baumannii) ATCC 17978 and Gram-positive i) Staphylococcus aureus (S. aureus) ATCC 9144 ii) Enterococcus faecalis (E. faecalis) NCTC 775 and iii) Enterococcus faecium (E. faecium ) NCTC 12204, then incubated at 37 °C overnight.
(§7) Preparation of Inoculum: An initial culture was made up by inoculating LB media (5 mL) with a single colony of bacteria under sterile conditions and incubated at 37 °C with shaking overnight. The following day, overnight bacterial cultures were subcultured into fresh LB medium to a starting OD600 of 0.01.
(§8) Preparation of 96 well microplate for MIC50: The 1:100 cell suspension (150 µL) was dispensed into individual wells under sterile conditions. SSAs (30 µL) were added to the wells to equal a total volume of 180 µL in the wells. Six repeats of each concentration for each SSA were created each plate. The plates were sealed using parafilm, then incubated at 37 °C in a microplate reader for 20 hours. OD600 endpoint data was used to generate growth curves. […]

[3] = test system: E. coli NCTC 12923; experiment: inhibition of bacterial growth, OD600 after 20 h; format: cell-based, Escherichia coli; details: SSA 5.0 mM, 2.5% ethanol, negative = enhanced growth
Experimental: as §1, §2, §3, §4, §5, §6, §7, §8

[4] = bi-directional permeability in Caco-2 cell line; format: in vitro ADME, human; details: human; for efflux ratio at 2 h / recovery at 2 h: Caco-2, pH 7.4, Caco-2; for Papp A→B at 2 h / Papp B→A at 2 h: Caco-2, pH 7.4, Caco-2, 5 or 10 µM, HBSS pH 7.4, 2 hours
Experimental: Metabolic stability was assessed in mouse and rat liver microsomes. Microsomes are subcellular fractions of hepatocytes and contain CYP450s, the predominant enzymes involved in first-pass metabolism.[66] […] A plasma protein binding assay was performed to assess the extent of compound binding to plasma proteins. This is key as only unbound compound is free to distribute and exert a pharmacological effect. […] To assess the potential for this sub-class of SSAs to be developed as drugs for oral administration, Caco-2 permeability assays were also performed, as a cellular model indicative of human intestinal permeability. […]
Sample analysis was by electrospray ionisation. […]
Bi-directional Permeability in Caco-2 Cell Line:
The bi-directional permeability in Caco-2 cell lines was determined by seeding cells onto an HTS Transwell plate. Cells were cultivated for 14-18 days in a cell culture incubator at 37 °C, 5 % CO2, 95 % relative humidity. Cell culture medium was replaced every other day. To assess monolayer integrity the transepithelial electrical resistance (TEER) across the monolayer was measured using Millicell Epithelial volt-ohm meter prior to assay and Lucifer yellow (LY) fluorescence measurement post-assay.
Test and control compounds were prepared in DMSO and diluted in Hank’s Balanced Saline […]
Solution (HBSS, pH 7.4) to a final concentration of 5 or 10 µM. Compound was added to the […]
donor compartment of the transwell plate for both apical to basolateral (A>B) and basolateral […]
to apical (B>A) measurements, with blank HBSS being added to the receiver compartment.
The transwell plate was then incubated at 37 °C, 5 % CO2 for 2 hours.

Compound | (Q) 1H NMR spectroscopy, proportion NMR silent, acid or anion ([1]; 5.6 mM, D2O 5.0% EtOH, 298 K) | (Q) 1H NMR spectroscopy, proportion NMR silent, cation ([1]; 5.6 mM, D2O 5.0% EtOH, 298 K) | (Q) 1H NMR, proportion NMR silent, SSA acid or anion ([1]; ~112 mM, DMSO-d6 1.0% DCM) | (Q) 1H NMR, proportion NMR silent, cation ([1]; ~112 mM, DMSO-d6 1.0% DCM) | Percentage inhibition of bacterial growth, M6 (K. pneumoniae) [2] | Percentage inhibition of bacterial growth, NCTC 12923 (E. coli) [3] | (Q) 1H NMR spectroscopy, proportion NMR silent, acid or anion ([1]; 5.6 mM, D2O 5.0% EtOH, 298 K, listed as 9) | Percentage inhibition of bacterial growth, M6 (K. pneumoniae) ([2]; listed as 9) | Percentage inhibition of bacterial growth, NCTC 12923 (E. coli) ([3]; listed as 9) | efflux ratio at 2 h [4] | Papp A→B at 2 h [4] | Papp B→A at 2 h [4] | recovery at 2 h ([4]; read-out: Recovery (%) AP-BL) | recovery at 2 h ([4]; read-out: Recovery (%) BL-AP) | (Q) 1H NMR spectroscopy, proportion NMR silent, acid or anion ([1]; 5.6 mM, D2O 5.0% EtOH, 298 K, listed as 3) | inhibition at 5000 µM [2] | Percentage inhibition of bacterial growth, M6 (K. pneumoniae) ([2]; listed as 3) | Percentage inhibition of bacterial growth, NCTC 12923 (E. coli) ([3]; listed as 3)
O=C(O)CC[C@H](NC(=O)Nc1ccc(C(F)(F)F)cc1)C(=O)O [SSA 2] | 39.8% and ~40% | 36.3% and 36% | 0% | 0% | 17.56% and 18% | 6.06% and 6% | – | – | – | – | – | – | – | – | – | – | – | –
O=C(O)CC[C@H](NC(=O)Nc1ccc(Br)cc1)C(=O)O [SSA 9] | – | – | – | – | – | – | 40.9% and 41% | 21.69% and 22% | 62.96% and 63% | 1.93 | 0.17 ×10⁻⁶ cm/s | 0.32 ×10⁻⁶ cm/s | 115% | 106% | – | – | – | –
O=C(O)CC[C@@H](NC(=O)Nc1ccc(C(F)(F)F)cc1)C(=O)O [SSA 3] | – | – | 0% | – | – | – | – | – | – | 2.31 | 0.1 ×10⁻⁶ cm/s | 0.24 ×10⁻⁶ cm/s | 103% | 87.4% | 34% | 15.4% | 15% | 59.91% and 60%
O=C(O)CC[C@H](NC(=O)Nc1ccc(C(F)(F)F)cc1)C(=O)O [SSA 1] | 38.5% and 39% | – | 0% | – | 26% | 64.03% and 64% | – | – | – | 1.23 | 0.19 ×10⁻⁶ cm/s | 0.23 ×10⁻⁶ cm/s | 107% | 89.7% | – | 26.2% | – | –
